Species: Rattus norvegicus
Experiment: Open TG-GATES - Regimen: Daily Repeat
Type: toxicity, organism-based, Sprague-Dawley
Parameters: regimen Daily Repeat, gender Male, age 6 weeks
Conditions: in vivo, po, route gavage; for APTT / Bas / Eos / Fbg / Hb / Ht / Lym / MCH / MCHC / MCV / Mono / Neu / PT / Plat / RBC / Ret / WBC: tissue Blood; for KIDNEY_TOTAL: tissue Kidney; for LIVER: tissue Liver; for A/G / ALP / ALT / AST / BUN / CRE / Ca / Cl / DBIL / GLC / IP / K / LDH / Na / PL / RALB / TBIL / TC / TG / TP / gamma-GTP: tissue Plasma
[1] = 20 mg/kg, 72 h, dose level Middle, time 3 day
[2] = 20 mg/kg, […], dose level Middle, time 7 day
[3] = 20 mg/kg, […], dose level Middle, time 14 day
[4] = 20 mg/kg, […], dose level Middle, time 28 day
[5] = 100 mg/kg, 72 h, dose level High, time 3 day
[6] = 100 mg/kg, […], dose level High, time 7 day
[7] = 100 mg/kg, […], dose level High, time 14 day
[8] = 100 mg/kg, […], dose level High, time 28 day

## CN(CCOc1ccc(CC2SC(=O)NC2=O)cc1)c1ccccn1.O=C(O)/C=C\C(=O)O (stereo not drawn) [ROSIGLITAZONE MALEATE]
[1]
  TERMINAL_BW: 255.1 g
  APTT: 16.4 s
  Bas: 0%
  Eos: 0.8%
  Fbg: 231.2 mg/dL
  Hb: 12.7 g/dL
  Ht: 38.6%
  Lym: 75.2%
  MCH: 21 pg
  MCHC: 32.8%
  MCV: 64 fL
  Mono: 8%
  Neu: 16.6%
  PT: 11.7 s
  Plat: 136.2 x10_4/uL
  RBC: 603.2 x10_4/ul
  Ret: 7%
  WBC: 83.2 x10_2/uL
  KIDNEY_TOTAL: 0.7 g
  LIVER: 12.7 g
  A/G: 2.3
  ALP: 1378.6 IU/L
  ALT: 38.8 IU/L
  AST: 67.8 IU/L
  BUN: 16.4 mg/dL
  CRE: 0.2 mg/dL
  Ca: 11.7 mg/dL
  Cl: 103.6 meq/L
  DBIL: 0.012 mg/dL
  GLC: 187.4 mg/dL
  IP: 7.6 mg/dL
  K: 4.3 meq/L
  LDH: 93.4 IU/L
  Na: 140 meq/L
  PL: 147.4 mg/dL
  RALB: 3.9 g/dL
  TBIL: 0.04 mg/dL
  TC: 80.4 mg/dL
  TG: 79.6 mg/dL
  TP: 5.6 g/dL
  gamma-GTP: 0 IU/L
[2]
  TERMINAL_BW: 281.6 g
  APTT: 15.7 s
  Bas: 0%
  Eos: 0.8%
  Fbg: 225.6 mg/dL
  Hb: 12.6 g/dL
  Ht: 38.6%
  Lym: 76%
  MCH: 20.7 pg
  MCHC: 32.5%
  MCV: 63.5 fL
  Mono: 6%
  Neu: 17.4%
  PT: 11.9 s
  Plat: 123 x10_4/uL
  RBC: 608.4 x10_4/ul
  Ret: 6.5%
  WBC: 87.6 x10_2/uL
  KIDNEY_TOTAL: 0.8 g
  LIVER: 13.5 g
  A/G: 2.1
  ALP: 1428.6 IU/L
  ALT: 36.2 IU/L
  AST: 67.6 IU/L
  BUN: 18.8 mg/dL
  CRE: 0.4 mg/dL
  Ca: 11.3 mg/dL
  Cl: 104.8 meq/L
  DBIL: 0.01 mg/dL
  GLC: 171.2 mg/dL
  IP: 7.8 mg/dL
  K: 4.3 meq/L
  LDH: 92 IU/L
  Na: 141.2 meq/L
  PL: 134.8 mg/dL
  RALB: 3.8 g/dL
  TBIL: 0.032 mg/dL
  TC: 71.8 mg/dL
  TG: 55.2 mg/dL
  TP: 5.7 g/dL
  gamma-GTP: 0.4 IU/L
[3]
  TERMINAL_BW: 355.9 g
  APTT: 15.9 s
  Bas: 0%
  Eos: 0.8%
  Fbg: 240.4 mg/dL
  Hb: 13 g/dL
  Ht: 39.7%
  Lym: 79.8%
  MCH: 20.7 pg
  MCHC: 32.8%
  MCV: 63 fL
  Mono: 6%
  Neu: 13.6%
  PT: 11.6 s
  Plat: 110.8 x10_4/uL
  RBC: 631.8 x10_4/ul
  Ret: 3.7%
  WBC: 108.6 x10_2/uL
  KIDNEY_TOTAL: 0.8 g
  LIVER: 16.1 g
  A/G: 2
  ALP: 1500.8 IU/L
  ALT: 35.2 IU/L
  AST: 64.2 IU/L
  BUN: 19 mg/dL
  CRE: 0.4 mg/dL
  Ca: 11.1 mg/dL
  Cl: 106.4 meq/L
  DBIL: 0.01 mg/dL
  GLC: 188 mg/dL
  IP: 7.3 mg/dL
  K: 4.2 meq/L
  LDH: 63 IU/L
  Na: 143.8 meq/L
  PL: 134.4 mg/dL
  RALB: 3.8 g/dL
  TBIL: 0.032 mg/dL
  TC: 73.8 mg/dL
  TG: 69.4 mg/dL
  TP: 5.6 g/dL
  gamma-GTP: 1 IU/L
[4]
  TERMINAL_BW: 432 g
  APTT: 15.9 s
  Bas: 0%
  Eos: 1%
  Fbg: 252.2 mg/dL
  Hb: 13.9 g/dL
  Ht: 42.4%
  Lym: 81.8%
  MCH: 19.2 pg
  MCHC: 32.8%
  MCV: 58.6 fL
  Mono: 6%
  Neu: 11%
  PT: 11.9 s
  Plat: 110 x10_4/uL
  RBC: 725 x10_4/ul
  Ret: 2.6%
  WBC: 105 x10_2/uL
  KIDNEY_TOTAL: 0.8 g
  LIVER: 16.8 g
  A/G: 1.8
  ALP: 1013.6 IU/L
  ALT: 34 IU/L
  AST: 61.2 IU/L
  BUN: 17.8 mg/dL
  CRE: 0.4 mg/dL
  Ca: 10.6 mg/dL
  Cl: 105.8 meq/L
  DBIL: 0.01 mg/dL
  GLC: 180.4 mg/dL
  IP: 6.5 mg/dL
  K: 4.2 meq/L
  LDH: 87.2 IU/L
  Na: 140.8 meq/L
  PL: 122.8 mg/dL
  RALB: 3.7 g/dL
  TBIL: 0.032 mg/dL
  TC: 64.6 mg/dL
  TG: 65.2 mg/dL
  TP: 5.8 g/dL
  gamma-GTP: 0.4 IU/L
[5]
  TERMINAL_BW: 241.9 g
  APTT: 16.1 s
  Bas: 0%
  Eos: 1%
  Fbg: 214 mg/dL
  Hb: 12 g/dL
  Ht: 36.4%
  Lym: 73.4%
  MCH: 21.1 pg
  MCHC: 33%
  MCV: 63.8 fL
  Mono: 7.2%
  Neu: 19.2%
  PT: 11.7 s
  Plat: 122 x10_4/uL
  RBC: 570.8 x10_4/ul
  Ret: 7.7%
  WBC: 111.2 x10_2/uL
  KIDNEY_TOTAL: 0.7 g
  LIVER: 12.3 g
  A/G: 2.5
  ALP: 1258 IU/L
  ALT: 44.4 IU/L
  AST: 74.2 IU/L
  BUN: 17.2 mg/dL
  CRE: 0.2 mg/dL
  Ca: 11.4 mg/dL
  Cl: 106.2 meq/L
  DBIL: 0.01 mg/dL
  GLC: 179.8 mg/dL
  IP: 8.1 mg/dL
  K: 4.1 meq/L
  LDH: 115.6 IU/L
  Na: 141.8 meq/L
  PL: 142.2 mg/dL
  RALB: 3.8 g/dL
  TBIL: 0.034 mg/dL
  TC: 77.6 mg/dL
  TG: 48 mg/dL
  TP: 5.4 g/dL
  gamma-GTP: 0 IU/L
[6]
  TERMINAL_BW: 286.2 g
  APTT: 16.1 s
  Bas: 0%
  Eos: 1.2%
  Fbg: 195.8 mg/dL
  Hb: 11.6 g/dL
  Ht: 35.3%
  Lym: 74.6%
  MCH: 21.8 pg
  MCHC: 32.8%
  MCV: 66.4 fL
  Mono: 9.2%
  Neu: 15.4%
  PT: 12.2 s
  Plat: 111.4 x10_4/uL
  RBC: 530.8 x10_4/ul
  Ret: 7.7%
  WBC: 99 x10_2/uL
  KIDNEY_TOTAL: 0.8 g
  LIVER: 14.7 g
  A/G: 2.3
  ALP: 1176 IU/L
  ALT: 33 IU/L
  AST: 67.6 IU/L
  BUN: 20.8 mg/dL
  CRE: 0.5 mg/dL
  Ca: 11 mg/dL
  Cl: 105.6 meq/L
  DBIL: 0.014 mg/dL
  GLC: 178.8 mg/dL
  IP: 7.5 mg/dL
  K: 4 meq/L
  LDH: 77 IU/L
  Na: 142 meq/L
  PL: 135.4 mg/dL
  RALB: 3.8 g/dL
  TBIL: 0.034 mg/dL
  TC: 73.8 mg/dL
  TG: 43.4 mg/dL
  TP: 5.4 g/dL
  gamma-GTP: 0.4 IU/L
[7]
  TERMINAL_BW: 351.2 g
  APTT: 16.1 s
  Bas: 0%
  Eos: 1%
  Fbg: 227 mg/dL
  Hb: 12.8 g/dL
  Ht: 38.9%
  Lym: 70.8%
  MCH: 20.8 pg
  MCHC: 32.8%
  MCV: 63.4 fL
  Mono: 10.4%
  Neu: 17.6%
  PT: 12 s
  Plat: 94.8 x10_4/uL
  RBC: 614.6 x10_4/ul
  Ret: 4.9%
  WBC: 108.6 x10_2/uL
  KIDNEY_TOTAL: 0.9 g
  LIVER: 16.3 g
  A/G: 2
  ALP: 1156 IU/L
  ALT: 36 IU/L
  AST: 68.2 IU/L
  BUN: 18.2 mg/dL
  CRE: 0.4 mg/dL
  Ca: 11 mg/dL
  Cl: 107.6 meq/L
  DBIL: 0.01 mg/dL
  GLC: 190.4 mg/dL
  IP: 7.4 mg/dL
  K: 3.8 meq/L
  LDH: 87.2 IU/L
  Na: 145.8 meq/L
  PL: 120 mg/dL
  RALB: 3.7 g/dL
  TBIL: 0.028 mg/dL
  TC: 69.4 mg/dL
  TG: 38.8 mg/dL
  TP: 5.5 g/dL
  gamma-GTP: 1 IU/L
[8]
  TERMINAL_BW: 428.4 g
  APTT: 16.1 s
  Bas: 0%
  Eos: 1.2%
  Fbg: 220.8 mg/dL
  Hb: 12.9 g/dL
  Ht: 39.5%
  Lym: 77.4%
  MCH: 19.6 pg
  MCHC: 32.6%
  MCV: 60.2 fL
  Mono: 7.8%
  Neu: 13.4%
  PT: 12.1 s
  Plat: 87.6 x10_4/uL
  RBC: 657.8 x10_4/ul
  Ret: 3.2%
  WBC: 104 x10_2/uL
  KIDNEY_TOTAL: 0.9 g
  LIVER: 18.6 g
  A/G: 2.1
  ALP: 951 IU/L
  ALT: 29 IU/L
  AST: 59.2 IU/L
  BUN: 18.6 mg/dL
  CRE: 0.4 mg/dL
  Ca: 11 mg/dL
  Cl: 105 meq/L
  DBIL: 0.01 mg/dL
  GLC: 179.6 mg/dL
  IP: 6.2 mg/dL
  K: 3.9 meq/L
  LDH: 88.4 IU/L
  Na: 141.2 meq/L
  PL: 123.2 mg/dL
  RALB: 3.9 g/dL
  TBIL: 0.04 mg/dL
  TC: 74.8 mg/dL
  TG: 37.8 mg/dL
  TP: 5.8 g/dL
  gamma-GTP: 0 IU/L
